According to publication PMC4878443 (Journal of medicinal chemistry, 2015):

Experiments:
human LSD1 = human LSD1 (Homo sapiens, UniProt O60341); assay: LSD1 inhibition, mass spectrometry; format: biochemical
[1] = system: normal fibroblast cells WI-38; assay: Cell growth inhibition; format: cell-based

Row | LSD1 inhibition in words (human LSD1) | fold less active against LSD1 than compound 17 (human LSD1; Ki ratio to compound 17) | Compound | activity against growth of normal cells in words [1]
1 | Loss of activity |  | Cc1ccc(-c2ncc(OCc3ccccc3)cc2-c2ccc(C#N)cc2)cc1 [Compound 45] | 
2 | completely lose inhibitory activities |  | Cc1ccc(-c2ncc(OCC3CCNCC3)cc2-c2ccc(CO)cc2)cc1 [Compound 30] | 
3 | Loss of activity |  | Cc1ccc(-c2ncc(O)cc2-c2ccc(C#N)cc2)cc1 [Compound 44] | 
4 | completely lose inhibitory activities |  | Cc1ccc(-c2ncc(OCC3CCNCC3)cc2-c2ccc(C(=O)O)cc2)cc1 [Compound 29] | 
5 | activity loss | > 1,700 fold | C#Cc1ccc(-c2cc(OCC3CCNCC3)cnc2-c2ccc(C)cc2)cc1 [Compound 28] | 

The next lines start with the molecule.

Row | Compound | LSD1 inhibition in words (human LSD1) | fold less active against LSD1 than compound 17 (human LSD1; Ki ratio to compound 17) | activity against growth of normal cells in words [1]
6 | c1ccc(-c2ccc(OCC3CCNCC3)cn2)cc1 [Compound 3] | inactive |  | 
7 | c1ccc(-c2cc(OCC3CCNCC3)cnc2-c2ccccc2)cc1 [Compound 11] | inactive |  | 
8 | CN1CCN(C(=O)CN[C@H]2C[C@@H]2c2ccc(-c3ccc(F)nc3)cc2)CC1 [Compound S2] |  |  | inactive
9 | Cc1ccc(-c2ncc(OCC3CCNCC3)cc2-c2ccc(CN3CCCCC3)cc2)cc1 [Compound 36] | almost inactive |  | 
